Data taken from patent publication US20130203649A1, “INHIBITORS OF TLR SIGNALING BY TARGETING TIR DOMAIN INTERFACES” (UNIVERSITY OF MARYLAND, BALTIMORE, priority 2012, published 2013).
Residues, ends and D or L forms follow the SMILES beside them. No end group written: not given here.

Columns and labels:
[1] = test system: TLR4; experiment: Inhibition of TLR4 signaling in thioglycollate-elicited mouse macrophages (effective concentration, overall inhibitory activity); type: cell-based; conditions: for Inhibition of TLR4 signaling (overall): LPS-stimulated mouse macrophages; for Effective conc.: TLR4 pathway, thioglycollate-elicited mouse macrophages
Method in brief: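 Thioglycollate-elicited peritoneal macrophages from C57BL/6J mice, adherent after overnight culture in RPMI with 2% FBS; cell-permeating (Antennapedia-fused) decoy peptides added 30 min before agonist. TLR4 stimulated with E. coli K235 LPS at 100 ng/ml final.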

[2] = test system: TLR4; experiment: LPS-induced cytokine mRNA expression in mouse macrophages (real-time RT-PCR); type: cell-based; conditions: for LPS-induced IFNβ and Rantes cytokine mRNA production / LPS-induced IL-1β mRNA production: 5 μM peptide; for LPS-induced IFNβ and Rantes cytokine mRNA production / LPS-induced IL-1β mRNA production / LPS-induced IL-1β, IFNβ, and RANTES mRNA / LPS-induced TNFα mRNA expression: LPS 10 ng/ml, 1 h
Method: C57BL/6J mice were obtained from The Jackson Laboratory (Bar Harbor, Me.). Primary peritoneal macrophages were obtained by peritoneal lavage 4 days after intraperitoneal injection (3 ml) of sterile 3% thioglycolate broth. Washed cells were resuspended in RPMI 1640 which contained 2% FBS, 1% penicillin:streptomycin and 2 mM L-glutamine. After plating, cells were incubated overnight at 37° C. and then washed with PBS to remove non-adherent cells. Cells were exposed to peptides 30 min before stimulation with a TLR agonist.
Total cellular RNA was isolated using Tripure from Roche (San Francisco, Calif.) following manufacture's protocol. RNA was then reverse transcribed using AMV Reverse Transcriptase from Promega (Madison, Wis.) with poly-T priming as per manufacturer's directions. cDNA was then quantified by real-time PCR using Applied Biosystems Fast SYBR Green PCR Master Mix and an ABI Prism 7500HT cycler. Primers used for detection: hypoxanthine phosphoribosyltransferase (HPRT) (forward: […] (SEQ ID NO:51), reverse: […] (SEQ ID NO:52)), TNFα (forward: […] (SEQ ID NO:53), reverse: […] (SEQ ID NO:54)), IL-1β (forward: […] (SEQ ID NO:55), reverse: […] (SEQ ID NO:56)), IFNβ (forward: […] (SEQ ID NO:57), reverse: CTCGGACCACCATCCAGG (SEQ ID NO:58)) and RANTES (forward: […] (SEQ ID NO:59), reverse: […] (SEQ ID NO:60)). The primers were designed using Primer Express 2.0 (Applied Biosystems). Using HPRT as reference, the ΔCt method was used to calculate relative gene expression. One-way ANOVA was preformed, as well as Dunnett's multiple comparison post hoc test with a p≦0.01 selected as the level of significance.
Total RNA was isolated with Nucleospin RNA II kits (Macherey-Nagel, Bethlehem, Pa.), followed by DNase digestion. cDNA was synthesized from 1 μg RNA using Goscript transcriptase (Promega), and subjected to real-time PCR with gene-specific primers for HPRT, TNF-α, IL-1β, IFNβ, and RANTES on H7900 ABI system using Fast SYBR Green master mix (Applied Biosystems, Foster City, Calif.).
To evaluate peptide-inhibitory activities, we first measured LPS-induced cytokine mRNA expression. […] […] Decoy peptide TM4 is derived from the BB loop of TRAM TIR; we previously identified this peptide as an effective TLR4 inhibitor (19).

| Molecule | Inhibition of TLR4 signaling (overall) [1] | Effective conc. [1] [µM] | LPS-induced IFNβ and Rantes cytokine mRNA production [2] | LPS-induced IL-1β mRNA production [2] | LPS-induced IL-1β, IFNβ, and RANTES mRNA ([2]; 20 μM peptide) | LPS-induced TNFα mRNA expression ([2]; 20 μM peptide) | LPS-induced (TLR4-mediated) cytokine mRNA expression ([2]; 5 or 20 μM peptide 30 min before LPS, 1 or 5 h) | LPS-induced transcriptional activation of IL-1β and IFN-β genes ([2]; 20 μM peptide) |
| --- | --- | --- | --- | --- | --- | --- | --- | --- |
| CC[C@H](C)[C@H](NC(=O)[C@H](CCCCN)NC(=O)[C@@H](NC(=O)[C@H](CCC(N)=O)NC(=O)[C@@H](N)CCCNC(=N)N)[C@@H](C)CC)C(=O)N[C@@H](Cc1c[nH]c2ccccc12)C(=O)N[C@@H](Cc1ccccc1)C(=O)N[C@@H](CCC(N)=O)C(=O)N[C@@H](CC(N)=O)C(=O)N[C@@H](CCCNC(=N)N)C(=O)N[C@@H](CCCNC(=N)N)C(=O)N[C@@H](CCSC)C(=O)N[C@@H](CCCCN)C(=O)N[C@@H](Cc1c[nH]c2ccccc12)C(=O)N[C@@H](CCCCN)C(=O)N[C@@H](CCCCN)C(=O)N[C@@H](CCC(=O)O)C(=O)N[C@@H](CC(C)C)C(=O)N[C@@H](CS)C(=O)N[C@@H](CCC(N)=O)C(=O)N[C@@H](C)C(=O)N[C@@H](CC(C)C)C(=O)N[C@@H](CO)C(=O)N[C@@H](CCCNC(=N)N)C(=O)N[C@@H](CO)C(=O)N[C@@H](Cc1c[nH]cn1)C(=O)N[C@@H](CS)C(=O)N[C@@H](CCCNC(=N)N)C(=O)O [TR5] (H-RQIKIWFQNRRMKWKKELCQALSRSHCR-OH) | potently inhibited | 20 | significantly inhibited | moderately inhibited | stronger inhibition | inhibit potently |  |  |
| RQIKIWFQNRRMKWKKAAYPPELRFMYYVD [TR9] | potently inhibited | 20 | significantly inhibited | moderately inhibited | stronger inhibition | inhibit potently |  |  |
| RQIKIWFQNRRMKWKKCLQDAIDHSGFT [TF5] |  | 20 |  |  |  |  | inhibit |  |
| RQIKIWFQNRRMKWKKEGSQASLRCF [TR3] | potently inhibited |  | significantly inhibited | moderately inhibited | stronger inhibition | inhibit potently |  |  |
| RQIKIWFQNRRMKWKKGGFYQVKEAVIHY [TR11] | potently inhibited | 20 | significantly inhibited | moderately inhibited | stronger inhibition | inhibit potently |  |  |
| RQIKIWFQNRRMKWKKPGFLRDPWCKYQML [TR6] | potently inhibited |  | significantly inhibited | moderately inhibited | stronger inhibition | inhibit potently |  | blocked |
